Test results as given in paper PMC3973950, “Synthesis of 5-arylidine amino-1,3,4-thiadiazol-2-[(N-substituted benzyol)]sulphonamides endowed with potent antioxidants and anticancer activity induces growth inhibition in HEK293, BT474 and NCI-H226 cells” (Medicinal Chemistry Research, 2013).

Columns and labels:
[1] = test system: BT474 (breast cancer cell line); experiment: In vitro cytotoxicity by MTT assay, BT474; assay type: cell-based; conditions: Homo sapiens, 72 h, read-out: % cytotoxicity (100 − % cell survival) of BT474 cell line; for cytotoxicity at 0.005 µM: BT-474, 0.005 μM; for cytotoxicity at 0.015 µM: BT-474, 0.015 μM; for cytotoxicity at 0.045 µM: BT-474, 0.045 μM; for cytotoxicity at 0.13 µM: BT-474, 0.13 μM; for cytotoxicity at 0.41 µM: BT-474, 0.41 μM; for cytotoxicity at 1.23 µM: BT-474, 1.23 μM; for cytotoxicity at 3.7 µM: BT-474, 3.7 μM; for cytotoxicity at 11.11 µM: BT-474, 11.11 μM; for cytotoxicity at 33.33 µM: BT-474, 33.33 μM; for cytotoxicity at 100 µM: BT-474, 100 μM
Protocol: (§1) The cancer cell line cultures of HEK 293 ([…]), BT474 (breast cancer cell line) and NCI-H226 (lung cancer) were obtained from Pasteur Institute of India, Coonoor, India, and were cultured in RPMI-1640 and 10 % heat-[…] New born calf serum with antibiotics [penicillin ([…]), streptomycin (100 μg/mL) and amphotericin B (25 μg/mL)]. The cells were maintained at 37 °C in a humidified atmosphere with 5 % CO2 and were subcultured twice a week.
(§2) The monolayer cell culture (100 μL) was trypsinized, and the cell count was adjusted to […] using medium containing 10 % new born calf serum. To each well of the 96-well microtitre plate, the diluted cell suspension (approximately 10,000 cells) (0.1 mL) was added and kept for 24 h in incubator at 37 °C in 5 % CO2 atmosphere for cell monolayer formation. After 24 h, when a partial monolayer was formed at the bottom of the well, the supernatant was flicked off, the monolayer was washed once, and different drugs, i.e. synthesized compounds (100 μL), were added to the cells in microtitre plates. The plates were then incubated at 37 °C for 3 days in 5 % CO2 atmosphere, and microscopic examination was carried out and observations recorded every 24 h. After 72 h, the sample solution in the wells was flicked off; MTT dye ([…]) was added to each well; plates were gently shaken and incubated for 4 h at 37 °C in 5 % CO2 incubator. The supernatant was removed and propanol (50 μL) was added; the plates were gently shaken to solubilize the formed formazan. The absorbance was measured using a microplate reader at a wavelength of 490 nm (Edmondson et al., [1988]; Prasad et al., [2005]; Chiruvella et al., [2008]; Chang et al., [2007]).

[2] = In vitro cytotoxicity by MTT assay, HEK 293; assay type: cell-based, human; conditions: human, HEK 293 cells, read-out: % cytotoxicity (100 − % cell survival) of HEK 293 cell line
Protocol: as §1, §2

[3] = In vitro cytotoxicity by MTT assay, NCI-H226; assay type: cell-based; conditions: human, NCI-H226 lung cancer cells, 0.015 μM, read-out: % Cytotoxicity (100 − % cell survival) of NCI-H226 cell line
Protocol: as §1, §2

[4] = test system: NCI-H226 (lung cancer cell line); experiment: In vitro cytotoxicity by MTT assay, NCI-H226; assay type: cell-based; conditions: Homo sapiens, 72 h, read-out: % Cytotoxicity (100 − % cell survival) of NCI-H226 cell line; for cytotoxicity at 0.005 µM: NCI-H226, 0.005 μM; for cytotoxicity at 0.045 µM: NCI-H226, 0.045 μM; for cytotoxicity at 0.13 µM: NCI-H226, 0.13 μM; for cytotoxicity at 0.41 µM: NCI-H226, 0.41 μM; for cytotoxicity at 1.23 µM: NCI-H226, 1.23 μM; for cytotoxicity at 3.7 µM: NCI-H226, 3.7 μM; for cytotoxicity at 11.11 µM: NCI-H226, 11.11 μM; for cytotoxicity at 33.33 µM: NCI-H226, 33.33 μM; for cytotoxicity at 100 µM: NCI-H226, 100 μM
Protocol: as §1, §2

SMILES | cytotoxicity at 0.005 µM [1] [%] | cytotoxicity at 0.015 µM [1] [%] | cytotoxicity at 0.045 µM [1] [%] | cytotoxicity at 0.13 µM [1] [%] | cytotoxicity at 0.41 µM [1] [%] | cytotoxicity at 1.23 µM [1] [%] | cytotoxicity at 3.7 µM [1] [%] | cytotoxicity at 11.11 µM [1] [%] | cytotoxicity at 33.33 µM [1] [%] | cytotoxicity at 100 µM [1] [%] | cytotoxicity at 72 h, 0.005 µM [2] [%] | cytotoxicity at 72 h, 0.015 µM [2] [%] | cytotoxicity at 72 h, 0.045 µM [2] [%] | cytotoxicity at 72 h, 0.13 µM [2] [%] | cytotoxicity at 72 h, 0.41 µM [2] [%] | cytotoxicity at 72 h, 1.23 µM [2] [%] | cytotoxicity at 72 h, 3.7 µM [2] [%] | cytotoxicity at 72 h, 11.11 µM [2] [%] | cytotoxicity at 72 h, 33.33 µM [2] [%] | cytotoxicity at 72 h, 100 µM [2] [%] | other results
Nc1ccc(S(=O)(=O)Nc2nnc(S(=O)(=O)NC(=O)c3ccccc3N)s2)cc1 [Compound 7b] | 27.4 | 28.1 | 29.5 | 30.2 | 31.4 | 32.2 | 33.3 | 34.6 | 35.5 | 36.6 | 37.8 | 39.2 | 40.5 | 44 | 45.3 | 46.5 | 47.8 | 48.2 | 50.7 | 51.9 | cytotoxicity at 72 h, 0.015 µM [3]: 33.6%; cytotoxicity at 0.005 µM [4]: 33.5%; cytotoxicity at 0.045 µM [4]: 35.5%; cytotoxicity at 0.13 µM [4]: 37%; cytotoxicity at 0.41 µM [4]: 37.4%; cytotoxicity at 1.23 µM [4]: 38.8%; cytotoxicity at 3.7 µM [4]: 39.1%; cytotoxicity at 11.11 µM [4]: 40.6%; cytotoxicity at 33.33 µM [4]: 41.1%; cytotoxicity at 100 µM [4]: 42.4%
Nc1nnc(S(=O)(=O)NC(=O)c2ccc([N+](=O)[O-])cc2)s1 [Compound 4e] | 30.9 | 31 | 31.8 | 32.3 | 33.1 | 35.7 | 37 | 37.2 | 38.9 | 40.4 | 30.6 | 31.6 | 34.1 | 34.8 | 35.4 | 37.1 | 38.9 | 39.1 | 40 | 40.2 | cytotoxicity at 72 h, 0.015 µM [3]: 28.1%; cytotoxicity at 0.005 µM [4]: 27.3%; cytotoxicity at 0.045 µM [4]: 28.9%; cytotoxicity at 0.13 µM [4]: 29.6%; cytotoxicity at 0.41 µM [4]: 29.9%; cytotoxicity at 1.23 µM [4]: 30.6%; cytotoxicity at 3.7 µM [4]: 31.3%; cytotoxicity at 11.11 µM [4]: 32.2%; cytotoxicity at 33.33 µM [4]: 33.3%; cytotoxicity at 100 µM [4]: 34.6%
CC(=O)Nc1ccc(S(=O)(=O)Nc2nnc(S(=O)(=O)NC(=O)c3ccccc3O)s2)cc1 [Compound 6d] | 26.3 | 27.7 | 28.9 | 29.4 | 30.6 | 31 | 32.1 | 32.9 | 33.3 | 33.9 | 33.3 | 34.8 | 35.1 | 35.9 | 36.7 | 37.2 | 38.4 | 39.3 | 40.7 | 41.3 | cytotoxicity at 72 h, 0.015 µM [3]: 36.4%; cytotoxicity at 0.005 µM [4]: 35.5%; cytotoxicity at 0.045 µM [4]: 37%; cytotoxicity at 0.13 µM [4]: 39.1%; cytotoxicity at 0.41 µM [4]: 41.2%; cytotoxicity at 1.23 µM [4]: 42%; cytotoxicity at 3.7 µM [4]: 43.4%; cytotoxicity at 11.11 µM [4]: 45.3%; cytotoxicity at 33.33 µM [4]: 47.3%; cytotoxicity at 100 µM [4]: 49.1%
CC(=O)Nc1ccc(S(=O)(=O)Nc2nnc(S(=O)(=O)NC(=O)c3ccc(N)cc3)s2)cc1 [Compound 6c] | 33.1 | 33.3 | 34.1 | 35 | 35.4 | 36.7 | 37.1 | 37.9 | 38.2 | 39.4 | 30.5 | 32 | 32.9 | 33.6 | 34.8 | 35.7 | 36.6 | 37.8 | 38.2 | 38.8 | cytotoxicity at 72 h, 0.015 µM [3]: 32.8%; cytotoxicity at 0.005 µM [4]: 30.4%; cytotoxicity at 0.045 µM [4]: 33.6%; cytotoxicity at 0.13 µM [4]: 34.1%; cytotoxicity at 0.41 µM [4]: 34.8%; cytotoxicity at 1.23 µM [4]: 34.9%; cytotoxicity at 3.7 µM [4]: 35.1%; cytotoxicity at 11.11 µM [4]: 36.5%; cytotoxicity at 33.33 µM [4]: 38.3%; cytotoxicity at 100 µM [4]: 39%
Nc1nnc(S(=O)(=O)NC(=O)c2ccc(Cl)cc2)s1 [Compound 4g] | 30.6 | 31.4 | 32.1 | 33.2 | 34.1 | 34.9 | 35.2 | 36.2 | 37.8 | 38.2 | 39.3 | 40.5 | 41.2 | 43.7 | 45.1 | 45.6 | 46.4 | 47.1 | 48.7 | 50.2 | cytotoxicity at 72 h, 0.015 µM [3]: 36.1%; cytotoxicity at 0.005 µM [4]: 35.8%; cytotoxicity at 0.045 µM [4]: 37%; cytotoxicity at 0.13 µM [4]: 37.1%; cytotoxicity at 0.41 µM [4]: 37.8%; cytotoxicity at 1.23 µM [4]: 38.1%; cytotoxicity at 3.7 µM [4]: 39.4%; cytotoxicity at 11.11 µM [4]: 40.3%; cytotoxicity at 33.33 µM [4]: 41.4%; cytotoxicity at 100 µM [4]: 41.8%
